The test system of assay [1] is popliteal lymph node dissection (PLND) mouse model. In words: Popliteal lymph node dissection (PLND) hind limb model of lymphatic injury.
In assay [2] the test system is mouse tail model of lymphedema. The experiment in a line: Mouse tail model of lymphedema (tail volume, histology, immunostaining, lymphoscintigraphy, NIR imaging, PCR, ELISA). Format: in vivo, C57BL/6J mice.
Assay [3] concerns hind limb lymphatic ablation with DT. In words: Hind limb lymphatic ablation with DT. It counts as in vivo, mouse.
Where [4] appears, read: systemic pirfenidone once daily for 2 weeks from 2 weeks after PLND, 4 weeks after PLND, vs vehicle.
The mark [5] stands for this setting: systemic pirfenidone, 4 weeks after PLND, vs control.
The mark [6] stands for this setting: systemic pirfenidone, oral 400 mg/kg daily for 3 weeks from 7 weeks after surgery, vs control.
The mark [7] stands for this setting: systemic pirfenidone, vs control.
Setting [8] is: topical pirfenidone 1 mg/ml daily for 3 weeks from 7 weeks after surgery, vs control.
Setting [9] is: topical pirfenidone, vs control.
[10] abbreviates: topical captopril 5% once daily for 2 weeks after PLND, vs control.
The mark [11] stands for this setting: captopril after DT lymphatic ablation, ipsilateral limb vs ipsilateral control.
Setting [12] is: topical captopril 5% once daily, 6 weeks after tail lymphatic ablation, vs control.

In the case of `Cc1ccc(=O)n(-c2ccccc2)c1` [pirfenidone], the “lymphatic vessels density (LYVE-1) in the hind limb” value in assay [1] (systemic pirfenidone once daily for 2 weeks from 2 weeks after PLND, 4 weeks after PLND, vs control) was “marked increase”. In assay [1] (setting [4]), the “dermal backflow and capillary vessel leakage (NIR lymphangiography)” value is recorded as “markedly less”; the “increase in rate of collecting lymphatic vessel contraction” value is 2 fold. Moreover, in assay [1] (setting [5]), the “perilymphatic expression of iNOS by inflammatory cells” value is “significant decrease” and the “perilymphatic infiltration of inflammatory cells (CD45+)” value is given as “significant decrease”. Further, in assay [2] (pirfenidone (FIG. 20I: systemic), vs control), the “TGF-β1 protein accumulation (ELISA)” value was “decreased accumulation”. The “accumulation of IFN-γ protein (ELISA)” value in assay [2] (pirfenidone (FIG. 20J: systemic), vs control) is “significant decrease”. The “VEGF-C protein accumulation (ELISA)” value in assay [2] (pirfenidone (FIG. 20K: systemic), vs control) was “no difference”. In assay [2] (pirfenidone treatment (systemic and topical, FIG. 20A, 20D), vs control), the “numbers of infiltrating CD4+ cells” value is given as “marked decreases”. For the same compound, the “numbers of infiltrating CD3+ cells” value in assay [2] (pirfenidone treatment from 7 weeks after surgery, vs control) is reported as “marked decreases”. The “lymphatic vessels density (LYVE-1) in the tail” value in assay [2] (pirfenidone, vs control) is listed as “marked increase”. For the same compound, the “type I collagen around collecting lymphatics (α-SMA+/podoplanin+)” value in assay [2] (pirfenidone-treated animals vs control) is given as “essentially normal lymphatic vessels”. Moreover, in assay [2] (setting [6]), the soft tissue thickness result is “markedly decreased” and the tail volume result is given as “markedly decreased”. Besides, in assay [2] (setting [7]), the “F4/80+ cellular infiltration in lymphedematous tail tissues” value was “no difference”; the “accumulation of TGF-β1+ cells” value is “markedly decreased”; the “accumulation of pSMAD3+ cells” value is recorded as “markedly decreased”; the “dermal and subcutaneous type I collagen deposition” value is reported as “significantly decreased”. Also, in assay [2] (setting [7]), the “increase in decay-adjusted 99Tc uptake of the sacral lymph nodes” value was ~4 fold; the “increase in peak nodal uptake of 99Tc” value was ~4 fold; the “numbers of leukocytes infiltrating the dermis and subcutaneous fat” value was “markedly decreased”; the “rate of 99Tc uptake (slope of decay-adjusted curve)” value is given as “increased”. In assay [2] (setting [8]), the soft tissue thickness entry is on record as “markedly decreased” and the tail volume entry was “markedly decreased”. Also, in assay [2] (setting [9]), the “F4/80+ cellular infiltration in lymphedematous tail tissues” value was “no difference”; the “accumulation of TGF-β1+ cells” value is listed as “markedly decreased”; the “accumulation of pSMAD3+ cells” value was “markedly decreased”; the “dermal and subcutaneous type I collagen deposition” value is listed as “significantly decreased”. Also, in assay [2] (setting [9]), the “increase in decay-adjusted 99Tc uptake of the sacral lymph nodes” value is given as ~4 fold; the “increase in peak nodal uptake of 99Tc” value was ~4 fold; the “numbers of leukocytes infiltrating the dermis and subcutaneous fat” value was “markedly decreased”; the “rate of 99Tc uptake (slope of decay-adjusted curve)” value is recorded as “increased”.

Regarding `C/C(O)=C(\C#N)C(=O)Nc1ccc(C(F)(F)F)cc1` [teriflunomide], the “increase in number of DCs trafficked to the inguinal lymph node (FITC painting)” value in assay [1] (topical teriflunomide 27 mg/ml after PLND, vs control) was “more than 5 fold”. The “increase in formation of collateral lymphatic vessels bypassing the zone of injury (ICG near infra-red imaging)” value in assay [1] (topical teriflunomide 27 mg/ml once daily for 2 weeks from 2 weeks after PLND, vs vehicle) turned out to be 4.5 fold. The “decrease in tail volume” value in assay [2] (topical teriflunomide 27 mg/ml once daily for 4 weeks from 2 weeks after surgery, 6 weeks after lymphatic ablation, vs vehicle) is recorded as ~6 fold. Also, the “decrease in number of infiltrating CD4+ cells in tail tissues” value in assay [2] (topical teriflunomide 27 mg/ml, vs control) was “more than 8 fold”.

As for `C[C@H](CS)C(=O)N1CCC[C@H]1C(=O)O` [captopril], in assay [1] (setting [10]), the “T cell (CD3+) infiltration in hind limb tissues” value was “decreases”, the “hind limb collecting lymphatic pumping (packet frequency)” value was “increases”, the “lymphangiogenesis (LYVE-1+ vessels)” value was “increases” and the “macrophage (F4/80+) infiltration in hind limb tissues” value was “decreases”. Besides, the “trafficking of dendritic cells (FITC+CD11c cells in inguinal lymph nodes)” value in assay [1] (setting [10]) is given as “increases”. Further, the lymphatic function result in assay [1] (topical captopril 5% once daily for 2 weeks after PLND, vs vehicle) is “improved lymphatic function”. In assay [3] (setting [11]), the “LYVE-1+ lymphatic vessel area” value is listed as “significant decrease”, the “T cell (CD3+) infiltration in hind limb tissues” value is reported as “decreases”, the “hind limb angiotensin converting enzyme (ACE) expression” value was “decreases” and the “hind limb collecting vessel smooth muscle (α-SMA) deposition” value is given as “decreases”. Also, in assay [3] (setting [11]), the “hind limb lymphangiogenesis (LYVE-1+ lymphatic vessels)” value is “decreases”, the “hind limb macrophage (F4/80+) infiltration” value was “decreases” and the “hind limb type I collagen deposition” value is listed as “decreases”. The “formation of collateral lymphatics (ICG)” value in assay [3] (captopril after DT lymphatic ablation, vs control) is “increases”. Also, in assay [3] (captopril treatment after hind limb lymphatic ablation with DT, vs control), the foot swelling result was “obvious decrease”. For the same compound, in assay [2] (setting [12]), the ACE staining area result was “significant decrease”, the “LYVE-1+ lymphatic vessel area” value was “significant decrease”, the “dermal type I collagen staining area” value is reported as “significant decrease” and the “number of lymphatic vessels (LYVE-1+) crossing the region of the tail wound” value is listed as “increases”. Moreover, in assay [2] (setting [12]), the “perilymphatic CD3+ cells/vessel” value is recorded as “significant decrease”, the “perilymphatic F4/80 cells/vessel” value is recorded as “significant decrease” and the “subcutaneous fibroadipose tissue deposition” value is given as “significant decrease”. For the same compound, the “tail collecting vessel pumping (contraction) frequency” value in assay [2] (topical captopril ointment, 6 weeks after tail lymphatic ablation, vs control) is reported as “increases”.

(Values after US10251871B2, “Compositions and methods for treatment of edema” (Memorial Sloan Kettering Cancer Center, priority 2015, dated 2019).)
